Reference: US11090313B2, “Methods for inhibiting muscle atrophy” (UNIVERSITY OF IOWA RESEARCH FOUNDATION, priority 2010, dated 2021)
Entries after “also recorded” stand apart in the source; their conditions may differ.

What was measured:
Type in all cases: in vivo, mouse
C57BL/6 mice = experiment: Fasting-induced muscle atrophy in mice (i.p. dosing, 24 h fast)
Experimental: The mice were then fasted, and after 12 hours of fasting, the mice received a second dose of the compound or vehicle. After 24 hours of fasting, the blood glucose was measured and muscles were harvested. The data shown in FIGS. 6C-6H are means±SEM from ≤16 mice per condition. […] The effects of metformin and ursolic acid on fasting-induced muscle atrophy were also examined, i.e. the effect of 24 h fast (relative to ad lib feeding) on wet weight of lower hindlimb skeletal muscle (bilateral tibialis anterior (“TA” muscle), gastrocnemius, and soleus; see FIGS. 6E-6G). […] In FIGS. 6E-6H, each data point represents one mouse and the horizontal bars denote the means. In FIGS. 6C-6H, P-values were determined using unpaired t-tests.
Mice were then fasted, and after 12 hours of fasting, mice received a second dose of ursolic acid, oleanolic acid, or vehicle. After 24 hours of fasting, lower hindlimb skeletal muscles and liver were harvested and weighed.
To test this, food was withdrawn from mice, and then vehicle, ursolic acid (200 mg/kg) or tomatidine (50 mg/kg) were administered by i.p. injection. Twelve hours later, mice received another i.p. injection of vehicle or the same dose of ursolic acid or tomatidine. Twelve hours later, skeletal muscles were harvested and weighed. […] We next used the same protocol to compare the effects of vehicle (corn oil) and tomatidine (5, 15 and 50 mg/kg).

[1] = system: extensor digitorum longus and peroneus muscles; experiment: Ex vivo specific tetanic force of muscles from mice fed ursolic acid
Excerpt: Briefly, six-week old male C57BL/6 mice were provided either standard diet or diet containing 0.27% ursolic acid for 16 weeks before being euthanized. The lower hindlimb was removed (by transsecting the upper hindlimb mid-way through the femur), and placed in Krebs solution aerated with 95% 02 and 5% C02. The gastrocnemius, soleus and tibialis anterior muscles, as well as the distal half of the tibia and fibula were then removed and discarded, leaving the extensor digitorum longus and peroneus muscles with their origins and insertions intact. A suture was placed through the proximal tendon and secured to the distal femur fragment. This ex vivo preparation was then mounted vertically in a water jacket bath (Aurora Scientific 1200A Intact Muscle Test System, filled with aerated Krebs solution) by attaching the suture to a servo-controlled lever (superiorly) and clamping the metatarsals (inferiorly). Passive muscle force was adjusted to a baseline of 1 g, and then muscles were stimulated with supramaximal voltage (80 V) at 100 Hz. The mean time from euthanasia to maximal force measurements was 10 min. After force measurements, muscles were removed and weighed in order to calculate specific titanic force. […] Data are means±SEM from 5-6 mice per diet. P-values were determined with a t-test.

mice = experiment: High fat diet with ursolic acid and/or naringenin; settings: 5 weeks
Experimental: To determine this, weight-matched mice were provided ad libitum access to standard (Harlan Teklad formula 7013), high fat diet (HFD; Harlan Teklad formula TD93075), or HFD containing varying concentrations of ursolic acid (0.15%) and/or naringenin (0.5% or 1.5%). After the mice consumed these diets for 5 weeks, fasting blood glucose, total body weight, fat mass, liver weight, grip strength, and skeletal muscle weight was measured.

[2] = ursolic acid 200 mg/kg i.p. twice, 24 h fast, qPCR, normalized to vehicle
[3] = 0.27% ursolic acid diet 16 weeks vs standard diet
[4] = HFD with ursolic acid 0.15% or naringenin 0.5% or 1.5%

`C[C@H]1[C@H](C)CC[C@]2(C(=O)O)CC[C@]3(C)C(=CC[C@@H]4[C@@]5(C)CC[C@H](O)C(C)(C)[C@@H]5CC[C@]43C)[C@H]12` [ursolic acid] was tested, and the “skeletal muscle weight in fasted mice (fasting-induced muscle atrophy)” value (C57BL/6 mice; i.p. at 0 and 12 h of 24 h fast, vs vehicle, mg/kg: ursolic acid 200, oleanolic acid 200, metformin 250, tomatidine 50, allantoin 2, tacrine 4, ungerine 2, hippeastrine 2, conessine 2) was “increased skeletal muscle weight; also recorded: increased muscle weight in fasted mice”, the fasting blood glucose (C57BL/6 mice; mice, i.p. at 0 and 12 h of 24 h fast, mg/kg: metformin 250, ursolic acid 200, hippeastrine 2, conessine 2) was “significantly reduced fasting blood glucose” and the “increase of muscle weight in fasted mice” value (C57BL/6 mice; ursolic acid 200 mg/kg i.p. twice, 24 h fast, bilateral TA, gastrocnemius and soleus wet weight) was 7±2%. For the same compound, the “MuRF1 mRNA levels in TA muscles of fasted mice” value (C57BL/6 mice; [2]) was “reduced fasting levels”, the “atrogin-1 mRNA levels in TA muscles of fasted mice” value (C57BL/6 mice; [2]) was “reduced fasting levels” and the maximal tetanic force [1, 3] was “did not differ between the two groups”. The “muscle weight (extensor digitorum longus and peroneus)” value [1, 3] was “did not differ between the two groups”, the “specific force generated by muscles ex vivo” value ([1]; 0.27% ursolic acid diet 16 weeks, 80 V, 100 Hz) was “increased the specific force generated by muscles ex vivo” and the “fasting blood glucose in high fat fed mice” value (mice; HFD with ursolic acid 0.15% and/or naringenin 0.5% or 1.5%) was “partially prevented”. The “grip strength in high fat fed mice” value (mice; [4]) was “increased strength to a greater extent than naringenin” and the “skeletal muscle weight in high fat fed mice” value (mice; [4]) was “increased muscle weight”.
